“And” between values parts separate entries of the source, which are not always exact repeats. Identical values can stand only once.
System: custom murine 40-gene Precision Profile for Rheumatoid Arthritis, whole blood
Test: Collagen Induced Arthritis (CIA) model, whole blood gene expression by QPCR, vehicle or dexamethasone treatment
Type: in vivo, male DBA/1 mice
Conditions: for Normalized CT (Delta CT) IL1RAP_M / Normalized CT (Delta CT) IL1RN—M / Normalized CT (Delta CT) IL6_M / Normalized CT (Delta CT) JUN_M / Normalized CT (Delta CT) MEF2C—M / Normalized CT (Delta CT) NFKB1—M / Normalized CT (Delta CT) PADI4—M / Normalized CT (Delta CT) PLA2G7—M / Normalized CT (Delta CT) PTPRC_M / Normalized CT (Delta CT) PTX3_M / Normalized CT (Delta CT) SER-PINE1_M / Normalized CT (Delta CT) TGFB1_M / Normalized CT (Delta CT) TIMP1_M / Normalized CT (Delta CT) TLR2_M / Normalized CT (Delta CT) TLR4_M / Normalized CT (Delta CT) TNFSF5—M / Normalized CT (Delta CT) TNF_M / Normalized CT (Delta CT) VEGF_M: whole blood
Experimental: Whole blood gene expression changes were evaluated in vehicle control and drug-treated murine subjects across two murine models of arthritis according to the following arthritis models:
KRN Transgenic Mouse (K/B×N): K/B×N serum from transgenic mouse used to induce arthritis in female BALB/c mice (n=54). Collagen Induced Arthritis (CIA): Bovine type II collagen used to induce arthritis in male DBA/1 mice (n=54).
In addition, naïve, untreated animal groups at baseline and terminal day were included to control for potential age-related changes in gene expression over the extended study periods. Animal groups, time-points, and treatment schedules are summarized in Tables 20A and 20B, respectively.
Whole blood samples from animals were collected by retro-orbital bleed at selected time-points in accordance with the arthritis study schemas described in […], and transferred into sample collection tubes containing a 1.5× lysis solution and RPMI. Samples were processed into total RNA and cDNA. […] It was anticipated from these murine models would provide a better understanding of the relevant molecular response of arthritis induction and their potential correlation to the human disease condition.
Normal murine subject reference values (represented as normalized Ct or ΔCt values) were established for male DBA/1 mice (n=6 for the CIA study arm) and female BALB/c mice (n=6 for the KRN study arm). In both arms of the study, gene expression response of normal (naïve, non-immunized and untreated) murine subjects were evaluated in groups of 6 each at day 0 and day 60 for the CIA study arm, and at day 0 and day 21 for the KRN study arm (see Tables 20A and 20B).
Gene expression responses for this arthritis-induced murine model were evaluated for untreated mice at day 24 and vehicle-treated mice at days 33, 42, and 60 to characterize disease progression.

[1] = CIA Day 33 Treated, group Average
[2] = CIA Day 33 Treated, individual mice
[3] = CIA Day 42 Treated, group Average

## C[C@@H]1C[C@H]2[C@@H]3CCC4=CC(=O)C=C[C@]4(C)[C@@]3(F)[C@@H](O)C[C@]2(C)[C@@]1(O)C(=O)CO [Dexamethasone]
[1]
  ABCA1_M Normalized CT Value (Delta CT), Average: 17.98
  APAF1_M Normalized CT Value (Delta CT), Average: 19.03
  ARG2_M Normalized CT Value (Delta CT), Average: 17.82
  CASP1_M Normalized CT Value (Delta CT), Average: 18.22
  CASP3_M Normalized CT Value (Delta CT), Average: 17.75
  CCR3_M Normalized CT Value (Delta CT), Average: 19.87
  CD8A_M Normalized CT Value (Delta CT), Average: 18.74
  CD14_M Normalized CT Value (Delta CT), Average: 17.29
  CD32_M Normalized CT Value (Delta CT), Average: 18.45
  CD86_M Normalized CT Value (Delta CT), Average: 22.19
  CSPG2_M Normalized CT Value (Delta CT), Average: 18.04
  F3_M Normalized CT Value (Delta CT), Average: 25.08
  HMOX1—M Normalized CT Value (Delta CT), Average: 17.47
  HSPA1A—M Normalized CT Value (Delta CT), Average: 19.62
  ICAM1—M Normalized CT Value (Delta CT), Average: 18.84
  IFI16_M Normalized CT Value (Delta CT), Average: 18.42
  IL1A_M Normalized CT Value (Delta CT), Average: 24.44
  IL1B_M Normalized CT Value (Delta CT), Average: 14.09
  IL10_M Normalized CT Value (Delta CT), Average: 25.81
  Normalized CT (Delta CT) IL1RAP_M: 17.96
  Normalized CT (Delta CT) IL1RN—M: 17.38
  Normalized CT (Delta CT) IL6_M: 23.95
  Normalized CT (Delta CT) JUN_M: 19.37
  Normalized CT (Delta CT) MEF2C—M: 18.84
  Normalized CT (Delta CT) NFKB1—M: 16.55
  Normalized CT (Delta CT) PADI4—M: 17.87
  Normalized CT (Delta CT) PLA2G7—M: 14.85
  Normalized CT (Delta CT) PTPRC_M: 13.58
  Normalized CT (Delta CT) PTX3_M: 25.65
  Normalized CT (Delta CT) SER-PINE1_M: 20.38
  Normalized CT (Delta CT) TGFB1_M: 14.82
  Normalized CT (Delta CT) TIMP1_M: 25.24
  Normalized CT (Delta CT) TLR2_M: 17.70
  Normalized CT (Delta CT) TLR4_M: 18.20
  Normalized CT (Delta CT) TNFSF5—M: 21.06
  Normalized CT (Delta CT) TNF_M: 19.71
  Normalized CT (Delta CT) VEGF_M: 20.19
[2]
  ABCA1_M Normalized CT Value (Delta CT): 17.26 and 18.20 and 17.50 and 17.61 and 19.02 and 18.30
  APAF1_M Normalized CT Value (Delta CT): 18.67 and 19.22 and 18.56 and 19.02 and 19.62 and 19.07
  ARG2_M Normalized CT Value (Delta CT): 17.14 and 18.42 and 17.47 and 17.92 and 17.83 and 18.15
  CASP1_M Normalized CT Value (Delta CT): 17.29 and 18.41 and 17.98 and 18.58 and 18.74 and 18.31
  CASP3_M Normalized CT Value (Delta CT): 16.82 and 17.64 and 17.74 and 18.06 and 18.00 and 18.21
  CCR3_M Normalized CT Value (Delta CT): 18.36 and 19.59 and 19.88 and 20.33 and 20.88 and 20.15
  CD8A_M Normalized CT Value (Delta CT): 17.83 and 18.69 and 18.52 and 18.83 and 19.44 and 19.14
  CD14_M Normalized CT Value (Delta CT): 17.10 and 17.77 and 16.89 and 17.05 and 17.36 and 17.54
  CD32_M Normalized CT Value (Delta CT): 17.52 and 18.69 and 18.07 and 18.17 and 19.57 and 18.71
  CD86_M Normalized CT Value (Delta CT): 21.71 and 22.43 and 21.83 and 21.99 and 22.92 and 22.26
  CSPG2_M Normalized CT Value (Delta CT): 17.33 and 18.26 and 17.36 and 18.91 and 17.94 and 18.42
  F3_M Normalized CT Value (Delta CT): 23.01 and 25.60 and 26.10 and 25.22 and 24.87 and 25.67
  HMOX1—M Normalized CT Value (Delta CT): 16.95 and 17.50 and 17.08 and 17.53 and 17.80 and 17.98
  HSPA1A—M Normalized CT Value (Delta CT): 18.80 and 20.04 and 19.25 and 20.03 and 19.32 and 20.30
  ICAM1—M Normalized CT Value (Delta CT): 18.16 and 19.11 (2×) and 18.33 and 19.33 and 19.01
  IFI16_M Normalized CT Value (Delta CT): 17.31 and 18.37 and 18.29 and 18.56 and 18.70 and 19.31
  IL1A_M Normalized CT Value (Delta CT): 24.58 and 24.31
  IL1B_M Normalized CT Value (Delta CT): 13.46 and 14.53 and 13.95 and 14.00 and 14.32 and 14.27
  IL10_M Normalized CT Value (Delta CT): 25.17 and 25.58 and 26.12 and 26.14 and 25.77 and 26.06
  Normalized CT (Delta CT) IL1RAP_M: 17.64 (2×) and 18.18 and 17.83 and 18.26 and 18.20
  Normalized CT (Delta CT) IL1RN—M: 16.72 and 17.84 and 17.10 and 17.67 and 17.23 and 17.73
  Normalized CT (Delta CT) IL6_M: 23.19 and 24.14 and 23.12 and 24.21 and 24.22 and 24.83
  Normalized CT (Delta CT) JUN_M: 18.61 and 19.69 and 19.28 and 19.18 and 19.87 and 19.60
  Normalized CT (Delta CT) MEF2C—M: 18.46 and 19.03 and 18.51 and 18.82 and 19.65 and 18.56
  Normalized CT (Delta CT) NFKB1—M: 15.81 and 16.66 and 16.35 and 16.51 and 17.38 and 16.63
  Normalized CT (Delta CT) PADI4—M: 17.79 and 18.22 and 17.82 and 17.94 and 17.90 and 17.58
  Normalized CT (Delta CT) PLA2G7—M: 14.49 and 15.12 and 14.67 and 15.01 and 15.09 and 14.74
  Normalized CT (Delta CT) PTPRC_M: 13.01 and 13.82 and 13.27 and 13.81 and 14.11 and 13.46
  Normalized CT (Delta CT) PTX3_M: 25.66 and 25.46 and 25.62 and 25.86 and 26.01 and 25.32
  Normalized CT (Delta CT) SER-PINE1_M: 20.09 and 20.42 and 20.70 and 20.01 and 20.26 and 20.78
  Normalized CT (Delta CT) TGFB1_M: 14.47 and 14.92 and 14.68 and 14.99 and 14.96 and 14.87
  Normalized CT (Delta CT) TIMP1_M: 25.48 and 25.27 and 25.34 and 25.05 and 25.73 and 24.56
  Normalized CT (Delta CT) TLR2_M: 17.23 and 17.92 and 17.46 and 17.97 and 17.84 and 17.81
  Normalized CT (Delta CT) TLR4_M: 17.72 and 18.52 and 18.24 and 18.23 and 18.30 and 18.16
  Normalized CT (Delta CT) TNFSF5—M: 20.24 and 21.35 and 20.73 and 21.36 and 21.76 and 20.95
  Normalized CT (Delta CT) TNF_M: 18.97 and 20.16 and 19.24 and 19.56 and 20.34 and 20.01
  Normalized CT (Delta CT) VEGF_M: 19.55 and 20.59 and 19.74 and 20.04 and 21.29 and 19.96
[3]
  ABCA1_M Normalized CT Value (Delta CT), Average: 19.35
  APAF1_M Normalized CT Value (Delta CT), Average: 19.60
  ARG2_M Normalized CT Value (Delta CT), Average: 17.90
  CASP1_M Normalized CT Value (Delta CT), Average: 18.55
  CASP3_M Normalized CT Value (Delta CT), Average: 18.07
  CCR3_M Normalized CT Value (Delta CT), Average: 19.53
  CD8A_M Normalized CT Value (Delta CT), Average: 19.66
  CD14_M Normalized CT Value (Delta CT), Average: 17.57
